Data set [1] relates to Monographella nivalis (Microdochium nivale). Briefly: Monographella nivalis (Microdochium nivale) / liquid culture (foot rot cereals). The class given is cell-based. Particulars: inhibition of growth determined photometrically 4-5 days after application, compared to untreated control.
For data set [2], the system named is Botryotinia fuckeliana (Botrytis cinerea). Briefly: Botryotinia fuckeliana (Botrytis cinerea) / liquid culture (gray mould). The format is cell-based. Particulars: inhibition of growth determined photometrically 3-4 days after application, compared to untreated control. The method, then:
Botryotinia fuckeliana (Botrytis cinerea)/Liquid Culture (Gray Mould) Conidia of the fungus from cryogenic storage are directly mixed into nutrient broth (Vogels broth). After placing a (DMSO) solution of test compound into a microtiter plate (96-well format), the nutrient broth containing the fungal spores is added. The test plates are incubated at 24° C. and the inhibition of growth is determined photometrically 3-4 days after application.

Data set [3] relates to Fusarium culmorum. Nature of the data set: microbe, parasite or virus in culture. The class given is cell-based. Particulars: read-out: control of Fusarium culmorum.
Data set [4] deals with Mycosphaerella graminicola (Septoria tritici). Nature of the data set: Mycosphaerella graminicola (Septoria tritici) / liquid culture (Septoria blotch). The class given is cell-based. The settings on record: Zymoseptoria tritici, inhibition of growth determined photometrically 4-5 days after application, compared to untreated control.

By melting point is commonly meant the temperature of the solid-liquid transition.

For the molecule `CC1(C)CC(Cc2ccccn2)N=C(c2cnc3c(F)c(F)ccc3c2)S1` (stereo not drawn) [E.01, 2-(7,8-difluoro-3-quinolyl)-6,6-dimethyl-4-(2-pyridylmethyl)-4,5-dihydro-1,3-thiazine], the inhibition of growth at 20 ppm in data set [1], in data set [2] and in data set [3] was at least 80% each time.
With `CC1(C)CC(Cc2cccc(F)n2)N=C(c2cnc3c(F)c(F)ccc3c2)S1` (stereo not drawn) [E.02, 2-(7,8-difluoro-3-quinolyl)-4-[(6-fluoro-2-pyridyl)methyl]-6,6-dimethyl-4,5-dihydro-1,3-thiazine], the inhibition of growth at 20 ppm in data set [1], in data set [2] and in data set [3] was at least 80% in each case. In data set [4], the inhibition of growth at 6 ppm was at least 80%.
As to `CC1(C)CC(Cc2ccccn2)N=C(c2cnc3c(F)c(F)ccc3c2)O1` (stereo not drawn) [E.03, 2-(7,8-difluoro-3-quinolyl)-6,6-dimethyl-4-(2-pyridylmethyl)-4,5-dihydro-1,3-oxazine], the melting point fell in the range of 120 to 123 °C. Further, in data set [1], the inhibition of growth at 20 ppm is at least 80%. The inhibition of growth at 20 ppm in data set [2] is at least 80%.
Take `CC1(C)CC(Cc2cccc(F)n2)N=C(c2cnc3c(F)c(F)ccc3c2)O1` (stereo not drawn) [E.04, 2-(7,8-difluoro-3-quinolyl)-4-[(6-fluoro-2-pyridyl)methyl]-6,6-dimethyl-4,5-dihydro-1,3-oxazine]: the melting point was 129 to 131 °C. In addition, in data set [1], the inhibition of growth at 20 ppm was at least 80%. The molecule further showed an inhibition of growth at 20 ppm in data set [2] of at least 80%. The inhibition of growth at 20 ppm in data set [3] is at least 80%.
For the molecule `CC1(C)CC(Cc2cnccn2)N=C(c2cnc3c(F)c(F)ccc3c2)S1` (stereo not drawn) [E.05, 2-(7,8-difluoro-3-quinolyl)-6,6-dimethyl-4-(pyrazin-2-ylmethyl)-4,5-dihydro-1,3-thiazine], the inhibition of growth at 20 ppm in data set [1] and in data set [2] was at least 80% throughout.
Consider `CC1(C)CC(Cc2cccnc2)N=C(c2cnc3c(F)c(F)ccc3c2)S1` (stereo not drawn) [E.06, 2-(7,8-difluoro-3-quinolyl)-6,6-dimethyl-4-(3-pyridylmethyl)-4,5-dihydro-1,3-thiazine], for which the inhibition of growth at 20 ppm in data set [1], in data set [2] and in data set [3] was at least 80% in each case.
Consider `CC1(C)CC(Cc2ccsc2)N=C(c2cnc3c(F)c(F)ccc3c2)S1` (stereo not drawn) [E.07, 2-(7,8-difluoro-3-quinoyl)-6,6-dimethyl-4-(3-thienylmethyl)-4,5-dihydro-1,3-thiazine], for which the inhibition of growth at 20 ppm in data set [1], in data set [2] and in data set [3] was at least 80% each time.
In the case of `CC1(C)CC(Cc2ccc(Cl)nc2)N=C(c2cnc3c(F)c(F)ccc3c2)O1` (stereo not drawn) [E.09, 4-[(6-chloro-3-pyridyl)methyl]-2-(7,8-difluoro-3-quinolyl)-6,6-dimethyl-4,6-dihydro-1,3-oxazine], the inhibition of growth at 20 ppm in data set [1] and in data set [2] was at least 80% in each case. The molecule also gave an inhibition of growth at 6 ppm in data set [4] of at least 80%.
`CC1(C)CC(Cn2cc(Cl)cn2)N=C(c2cnc3c(F)c(F)ccc3c2)S1` (stereo not drawn) [E.10, 4-[(4-chloropyrazol-1-yl)methyl]-2-(7,8-difluoro-3-quinolyl)-6,6-dimethyl-4,5-dihydro-1,3-thiazine]: the inhibition of growth at 20 ppm in data set [1] and in data set [2] was at least 80% in each case. The molecule also yielded an inhibition of growth at 6 ppm in data set [4] of at least 80%.
For `CC1(C)CC(Cn2ccc(Cl)n2)N=C(c2cnc3c(F)c(F)ccc3c2)S1` (stereo not drawn) [E.11, 4-[(3-chloropyrazol-1-yl)methyl]-2-(7,8-difluoro-3-quinolyl)-6,6-dimethyl-4,5-dihydro-1,3-thiazine], the inhibition of growth at 20 ppm in data set [1] and in data set [2] was at least 80% each time. In addition, the inhibition of growth at 6 ppm in data set [4] was at least 80%.
On to `CC1(C)CC(Cn2ccc(C(F)F)n2)N=C(c2cnc3c(F)c(F)ccc3c2)S1` (stereo not drawn) [E.12, 4-[[3-(difluoromethyl)pyrazol-1-yl]methyl]-2-(7,8-difluoro-3-quinolyl)-6,6-dimethyl-4,5-dihydro-1,3-thiazine], for which the inhibition of growth at 20 ppm in data set [1] and in data set [2] was at least 80% each time. The inhibition of growth at 6 ppm in data set [4] is at least 80%.
For the molecule `CC1(C)CC(Cc2cscn2)N=C(c2cnc3c(F)c(F)ccc3c2)O1` (stereo not drawn) [E.13, 2-(7,8-difluoro-3-quinolyl)-6,6-dimethyl-4-(thiazol-4-ylmethyl)-4,5-dihydro-1,3-oxazine], the inhibition of growth at 20 ppm in data set [1] and in data set [2] was at least 80% each time. The inhibition of growth at 6 ppm in data set [4] was at least 80%.
Consider `CC1(C)CC(Cc2nccs2)N=C(c2cnc3c(F)c(F)ccc3c2)S1` (stereo not drawn) [E.14, 2-(7,8-difluoro-3-quinolyl)-6,6-dimethyl-4-(thiazol-2-ylmethyl)-4,5-dihydro-1,3-thiazine], for which the inhibition of growth at 20 ppm in data set [1] and in data set [2] was at least 80% in each case. For the same molecule, in data set [4], the inhibition of growth at 6 ppm is at least 80%.
`CC1(C)CC(Cc2nccs2)N=C(c2cnc3c(F)c(F)ccc3c2)O1` (stereo not drawn) [E.15, 2-(7,8-difluoro-3-quinolyl)-6,6-dimethyl-4-(thiazol-2-ylmethyl)-4,5-dihydro-1,3-oxazine] yielded a melting point of 105 to 113 °C. Moreover, the inhibition of growth at 20 ppm in data set [1] is at least 80%. In data set [2], this molecule showed an inhibition of growth at 20 ppm of at least 80%. Besides, in data set [4], the inhibition of growth at 6 ppm is at least 80%.
Turning to `CC1(C)CC(Cc2cncs2)N=C(c2cnc3c(F)c(F)ccc3c2)S1` (stereo not drawn) [E.16, 2-(7,8-difluoro-3-quinolyl)-6,6-dimethyl-4-(thiazol-5-ylmethyl)-4,5-dihydro-1,3-thiazine], the inhibition of growth at 20 ppm in data set [1] and in data set [2] was at least 80% each time. This molecule displayed an inhibition of growth at 6 ppm in data set [4] of at least 80%.
`CC1(C)CC(Cn2cc(F)cn2)N=C(c2cnc3c(F)c(F)ccc3c2)S1` (stereo not drawn) [E.17, 2-(7,8-difluoro-3-quinolyl)-4-[(4-fluoropyrazol-1-yl)methyl]-6,6-dimethyl-4,5-dihydro-1,3-thiazine]: the inhibition of growth at 20 ppm in data set [1] and in data set [2] was at least 80% throughout.
For `CC1(C)CC(Cn2cc(C(F)(F)F)cn2)N=C(c2cnc3c(F)c(F)ccc3c2)S1` (stereo not drawn) [E.18, 2-(7,8-difluoro-3-quinolyl)-6,6-dimethyl-4-[[4-(trifluoromethyl)pyrazol-1-yl]methyl]-4,5-dihydro-1,3-thiazine], the inhibition of growth at 20 ppm in data set [1] was at least 80%.
`CC1(C)CC(Cc2cncs2)N=C(c2cnc3c(F)c(F)ccc3c2)O1` (stereo not drawn) [E.19, 2-(7,8-difluoro-3-quinolyl)-6,6-dimethyl-4-(thiazol-5-ylmethyl)-4,5-dihydro-1,3-oxazine] displayed a melting point of 122 to 127 °C. The molecule also returned an inhibition of growth at 20 ppm in data set [1] of at least 80%. The same molecule showed an inhibition of growth at 20 ppm in data set [2] of at least 80%.
`CC1(C)CC(Cc2cccnc2)N=C(c2cnc3c(F)cccc3c2)S1` (stereo not drawn) [E.20, 2-(8-fluoro-3-quinolyl)-6,6-dimethyl-4-(3-pyridylmethyl)-4,5-dihydro-1,3-thiazine] displayed an inhibition of growth at 6 ppm in data set [4] of at least 80%.
For the molecule `CC1(C)CC(Cc2cccnc2)N=C(c2cnc3c(F)cccc3c2)O1` (stereo not drawn) [E.22, 2-(8-fluoro-3-quinolyl)-6,6-dimethyl-4-(3-pyridylmethyl)-4,5-dihydro-1,3-oxazine], the inhibition of growth at 20 ppm in data set [1] and in data set [2] was at least 80% throughout.
As for `CC1(C)CC(Cc2ccsc2)N=C(c2cnc3c(F)cccc3c2)S1` (stereo not drawn) [E.23, 2-(8-fluoro-3-quinolyl)-6,6-dimethyl-4-(3-thienylmethyl)-4,5-dihydro-1,3-thiazine], the inhibition of growth at 20 ppm in data set [1], in data set [2] and in data set [3] was at least 80% throughout.
Take `CC1(C)CC(Cc2ccc(F)nc2)N=C(c2cnc3c(F)c(F)ccc3c2)S1` (stereo not drawn) [E.24, 2-(7,8-difluoro-3-quinolyl)-4-[(6-fluoro-3-pyridyl)methyl]-6,6-dimethyl-4,5-dihydro-1,3-thiazine]: the inhibition of growth at 20 ppm in data set [1], in data set [2] and in data set [3] was at least 80% each time.
On to `CC1(C)CC(Cc2ccsc2)N=C(c2cnc3c(F)c(F)ccc3c2)[S+]1[O-]` (stereo not drawn) [E.25, 2-(7,8-difluoro-3-quinolyl)-6,6-dimethyl-4-(3-thienylmethyl)-4,5-dihydro-1,3-thiazine 1-oxide], for which the inhibition of growth at 20 ppm in data set [1] and in data set [3] was at least 80% in each case.
Regarding `CC1(C)CC(Cc2ccncc2)N=C(c2cnc3c(F)c(F)ccc3c2)S1` (stereo not drawn) [E.26, 2-(7,8-difluoro-3-quinolyl)-6,6-dimethyl-4-(4-pyridylmethyl)-4,5-dihydro-1,3-thiazine], the inhibition of growth at 20 ppm in data set [1] and in data set [2] was at least 80% throughout.

The values above are taken from patent publication US20230142565A1, “MICROBIOCIDAL QUINOLINE DIHYDRO-(THIAZINE)OXAZINE DERIVATIVES” (SYNGENTA CROP PROTECTION AG, priority 2020, published 2023).
